Measured values: publication PMC2857062 (The Journal of biological chemistry, 2010)

Assays:
[1] = target: Dock1 DHR-1 domain (422-619) (Homo sapiens, UniProt Q14185); test: ITC; assay type: binding
[2] = target: Dock1 DHR-1 domain (422-619) (Homo sapiens, UniProt Q14185, D436Y); test: ITC; assay type: binding
Sequence of Dock1 DHR-1 domain (422-619) (Homo sapiens, UniProt Q14185, D436Y) (Q14185 422-619 D436Y): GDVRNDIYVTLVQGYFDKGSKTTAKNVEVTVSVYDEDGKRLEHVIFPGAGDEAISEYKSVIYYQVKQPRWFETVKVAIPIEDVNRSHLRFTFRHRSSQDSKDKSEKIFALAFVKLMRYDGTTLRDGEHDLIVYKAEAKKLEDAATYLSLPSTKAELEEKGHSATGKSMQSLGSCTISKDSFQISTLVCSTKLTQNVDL

Sequence of Dock1 DHR-1 domain (422-619) (Homo sapiens, UniProt Q14185) (Q14185 422-619): as the sequence (Q14185 422-619 D436Y) above, with Y15D counted along it

Kd [1] [µM]	Kd [2] [µM]	SMILES
7.7 ± 3		O=P(O)(O)O[C@H]1[C@H](O)[C@@H](OP(=O)(O)O)[C@H](OP(=O)(O)O)[C@@H](OP(=O)(O)O)[C@H]1O [Ins(1,3,4,5)P4]
	3.4	CCCCCCCC(=O)OC[C@H](COP(=O)(O)O[C@H]1[C@H](O)[C@@H](OP(=O)(O)O)[C@H](OP(=O)(O)O)[C@@H](OP(=O)(O)O)[C@H]1O)OC(=O)CCCCCCC [di-C8-PtdIns(3,4,5)P3]
